Measurements from PMC8465942, “Cyano- and Ketone-Containing Selenoesters as Multi-Target Compounds against Resistant Cancers” (Cancers, 2021).
Several values for one entry are separate records, joined by “and”; a condition that tells them apart may be missing. Equal values may be shown once. Entries after “also recorded” stand apart in the source; their conditions may differ. Marks after values point to notes of the source that are not given here.

Legend:
[1] = molecular target: ABCB1 (P-glycoprotein) in Colo 320 colonic adenocarcinoma cells (Homo sapiens, UniProt P08183); test: ABCB1 inhibition, rhodamine 123 accumulation by flow cytometry; conditions: for FAR (fluorescence activity ratio): rhodamine 123, FAR above 2 considered effective
Protocol: The inhibition of the ABCB1 multidrug efflux pump ABCB1 by the tested compounds was evaluated using flow cytometry, measuring the retention of rhodamine 123 by ABCB1 (P-glycoprotein) in Colo 320 colonic adenocarcinoma cells. Briefly, the cell number of colonic adenocarcinoma cells were adjusted to 2 × 10^6 cells/mL, re-suspended in serum-free RPMI-1640 medium in the case of colonic adenocarcinoma cells, and distributed in 0.5 mL aliquots into Eppendorf centrifuge tubes. The tested compounds were added at different concentrations (0.2 and 2 µM; from 1 and 10 mM stock solutions, respectively), and the samples were incubated for 10 min at room temperature. Tariquidar was applied as the positive control (0.2 µM final concentration), and DMSO was used as the solvent control (at 2 v/v%). Next, 10 µL (5.2 µM final concentration) of the fluorochrome rhodamine 123 (Sigma, St. Louis, MO, USA) was added to the samples and the cells were incubated for 20 min at 37 °C. After the incubation period, the cells were washed twice and re-suspended in 0.5 mL PBS for analysis. The fluorescence of the gated cell population was measured with a Partec CyFlow® flow cytometer (Partec, Münster, Germany). The percentage of the mean fluorescence intensity was calculated for the treated MDR cells as compared with the untreated cells. The results were obtained from a representative flow cytometry experiment in which at least 20,000 individual cells of the overall population were evaluated for the rhodamine 123 retained inside the cells. The fluorescence activity ratio (FAR) was calculated based on the following equation, which relates the measured fluorescence values: FAR=Colo320treated / Colo320control/Colo205treated / Colo205control
The parameters evaluated from flow cytometry experiments were: Forward Scatter Count (FSC, provides information about cell size); Side Scatter Count (SSC, proportional to cell granularity or internal complexity); FL-1 (Mean fluorescence of the cells), and Fluorescence Activity Ratio (FAR), which was calculated by the equation given above.

[2] = tested on: B16 (skin melanoma); test: Cytotoxicity on B16 cells; assay type: cell-based, murine; conditions: ratio IC50 non-tumour cells / IC50 cancer cells
[3] = molecular target: T1, recombinant human P-gp membranes (Homo sapiens, UniProt P08183); test: P-gp ATPase activity assay (Pgp-Glo); assay type: biochemical; conditions: 25 µM; relative to basal activity
T1 construct: purchased Promega
Protocol: P-glycoprotein ATPase activity was determined using the Pgp-Glo^TM Assay System (Promega, WI, USA). The assay was performed according to the manufacturer’s instructions. […] DMSO at 2% was applied as a solvent control. […] The reaction was stopped after adding 50 µL of ATP Detection Reagent. Then, the samples and controls were incubated at room temperature for 20 min. The emitted luciferase-generated luminescent signal was measured in a CLARIOstar Plus plate reader (BMG Labtech, UK) at 580 nm. The relative ATPase activity was calculated based on the ratio between the luminescence measured of the P-gp ATPase activity of each compound and the basal P-gp ATPase activity according to the following equation: Relative ATPase activity=Lumtreated−Lumuntreated/LumNa3VO4 − Lumuntreated
The effect of the tested compounds was evaluated according to the instructions of the manufacturer (Table 2).

[4] = tested on: MDR Colo 320 adenocarcinoma cells; test: Apoptosis induction (Annexin V-FITC / propidium iodide); assay type: cell-based, human; conditions: 2 µM; for Cell Death (%) Treated Sample-Untreated Sample / Early Apoptosis (%) Treated Sample-Untreated Sample / Late Apoptosis (%) Treated Sample-Untreated Sample: 3 h induction; for Apoptosis Quotient (%): total apoptotic events relative to reference M627 (20 µM)
Protocol: The assay was carried out using an Annexin V-FITC Apoptosis Detection Kit Cat. No. PF 032 from Calbiochem (EMD Biosciences. Inc. La Jolla. CA), according to the manufacturer's instructions. […] The cell suspension was distributed into 1 mL aliquots (1 × 10^6 cells) into a 24-well microplate and incubated overnight at 37 °C, with 5% CO2. On the following day, the medium was removed and a fresh medium was added to the cells. The cells were incubated in the presence of Se-compounds for 3 h at 37 °C. […] After a 3 h induction period, the culture medium was removed, the cells were washed with PBS, and a fresh medium was added to the cells. The 24-well plates were incubated overnight at 37 °C, with 5% CO2. After the incubation, the supernatant was collected in a microfuge tube and 200 μL of 0.25 trypsin (Trypsin-Versene) was added to the wells until the cells detached from the surfaces of the wells. The cells were centrifuged at 2000× g for 2 min at room temperature, the supernatant was removed, and the cells were re-suspended in fresh serum-free medium. After this procedure, apoptosis assay was carried out according to the rapid protocol of the kit using Annexin V-FITC and propidium iodide staining. […] The data were analysed by FlowJo^TM software (BD Biosciences, San Jose, NJ, USA).

T1 sequence (P08183 whole entry): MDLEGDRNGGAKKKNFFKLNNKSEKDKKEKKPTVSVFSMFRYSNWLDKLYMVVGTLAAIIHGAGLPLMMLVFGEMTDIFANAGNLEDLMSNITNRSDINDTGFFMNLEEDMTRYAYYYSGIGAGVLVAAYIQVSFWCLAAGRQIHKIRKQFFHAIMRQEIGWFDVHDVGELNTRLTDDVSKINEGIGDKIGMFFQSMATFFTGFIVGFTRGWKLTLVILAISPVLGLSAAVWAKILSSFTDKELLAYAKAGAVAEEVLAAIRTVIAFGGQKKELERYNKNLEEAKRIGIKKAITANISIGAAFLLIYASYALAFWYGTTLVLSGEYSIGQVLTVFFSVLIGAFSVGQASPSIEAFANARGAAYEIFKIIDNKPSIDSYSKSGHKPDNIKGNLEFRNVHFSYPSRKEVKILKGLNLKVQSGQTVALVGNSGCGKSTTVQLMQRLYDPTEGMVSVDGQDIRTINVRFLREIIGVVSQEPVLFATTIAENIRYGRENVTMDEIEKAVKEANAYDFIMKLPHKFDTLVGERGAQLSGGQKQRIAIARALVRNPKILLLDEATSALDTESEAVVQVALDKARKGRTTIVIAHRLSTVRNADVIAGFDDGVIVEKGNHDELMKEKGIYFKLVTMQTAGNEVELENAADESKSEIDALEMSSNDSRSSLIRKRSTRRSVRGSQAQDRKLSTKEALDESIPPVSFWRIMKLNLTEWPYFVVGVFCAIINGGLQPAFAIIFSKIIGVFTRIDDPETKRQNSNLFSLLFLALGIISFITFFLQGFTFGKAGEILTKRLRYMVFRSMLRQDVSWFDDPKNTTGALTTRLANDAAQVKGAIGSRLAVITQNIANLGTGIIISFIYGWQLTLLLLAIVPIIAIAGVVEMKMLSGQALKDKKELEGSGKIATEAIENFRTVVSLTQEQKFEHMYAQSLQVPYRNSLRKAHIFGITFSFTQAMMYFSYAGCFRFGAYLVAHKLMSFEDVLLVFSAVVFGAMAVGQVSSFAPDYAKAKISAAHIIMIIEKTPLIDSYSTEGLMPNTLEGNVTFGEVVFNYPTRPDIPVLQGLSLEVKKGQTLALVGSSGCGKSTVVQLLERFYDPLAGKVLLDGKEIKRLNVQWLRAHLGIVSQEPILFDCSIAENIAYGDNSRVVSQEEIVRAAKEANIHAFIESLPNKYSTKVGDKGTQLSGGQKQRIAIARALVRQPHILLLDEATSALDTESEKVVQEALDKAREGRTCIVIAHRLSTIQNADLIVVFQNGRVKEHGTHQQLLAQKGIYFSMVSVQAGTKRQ
ABCB1 (P-glycoprotein) in Colo 320 colonic adenocarcinoma cells, sequence (P08183 whole entry): as above

Structure (SMILES)	FSC (Forward Scatter Count) ([1]; 0.2 µM)	SSC (Side Scatter Count) ([1]; 0.2 µM)	FAR (fluorescence activity ratio) ([1]; 0.2 µM)	FSC (Forward Scatter Count) ([1]; 2 µM)	SSC (Side Scatter Count) ([1]; 2 µM)	FAR (fluorescence activity ratio) ([1]; 2 µM)	SI MRC-5/B16 [2]	Effect on P-gp ATPase activity [3]	Total Apoptotic Events (Early + Late, %) [4] [%]	Cell Death (%) Treated Sample-Untreated Sample [4] [%]	Early Apoptosis (%) Treated Sample-Untreated Sample [4] [%]	Late Apoptosis (%) Treated Sample-Untreated Sample [4] [%]	Apoptosis Quotient (%) [4] [%]	melting point [°C]
CC(=O)C[Se]C(=O)c1cccs1 [K1, Se-(2-Oxopropyl) Thiophene-2-carboselenoate]	2144	989	1.37	1866	1067	45.73	2.6	inhibited the ATPase activity; also recorded: inhibitors of P-gp ATPase activity	32.6	2.15	3.7	28.9	66.0	
CC(=O)C[Se]C(=O)c1ccccc1F [K2, Se-(2-Oxopropyl) 2-Fluorobenzoselenoate]	1916	1061	1.41	1945	1156	37.35	2.1		34.2	0.95	0.3	33.9	69.2	
CC(=O)C[Se]C(=O)c1ccc(Br)cc1 [K3, Se-(2-Oxopropyl) 4-Bromobenzoselenoate]	1706	982	3.99	2040	1031	39.17	1.3	stimulated the P-gp ATPase with a comparable intensity to the reference verapamil	44.2	0.00	18.6	25.6	89.5	
CC(=O)C[Se]C(=O)c1ccccc1C(F)(F)F [K4, Se-(2-Oxopropyl) 2-(Trifluoromethyl)benzoselenoate]	1808	861	1.76	1830	1008	4.99	1.4		19.5	5.95	3.4	16.1	39.5	
CC(=O)C[Se]C(=O)c1cccc(C(F)(F)F)c1 [K5, Se-(2-Oxopropyl) 3-(Trifluoromethyl)benzoselenoate]	1982	1096	1.84	1949	1053	32.61 and 32.62	2.8	milder stimulation	32.7	1.35	1.8	30.9	66.2	
CC(=O)C[Se]C(=O)c1ccc(F)c(Cl)c1 [K6, Se-(2-Oxopropyl) 3-Chloro-4-fluorobenzoselenoate]	1996	873	1.48	1833	1043	29.4 and 29.42	2.8		32.3	0.17	4.5	27.8	65.4	
CC(=O)C[Se]C(=O)c1ccc(C(C)(C)C)cc1 [K7, Se-(2-Oxopropyl) 4-(Tert-butyl)benzoselenoate]	1889	938	1.53	1920	1045	40.38 and 40.39	2.7	inhibited the ATPase activity; also recorded: inhibitors of P-gp ATPase activity	33.6	0.10	6.1	27.5	68.0	
CC(=O)C[Se]C(=O)c1cc(F)c(F)cc1F [K8, Se-(2-Oxopropyl) 2,4,5-Trifluorobenzoselenoate]	1804	853	3.38	1990	1131	36.09	1.8	milder inhibition of the ATPase; also recorded: inhibitors of P-gp ATPase activity	31.6	0.85	4.9	26.7	64.0	
N#CC[Se]C(=O)c1cccc(F)c1 [N2, Se-(Cyanomethyl) 3-Fluorobenzoselenoate]							>6 *							
N#CC[Se]C(=O)c1ccc(Br)cc1 [N3, Se-(Cyanomethyl) 4-Bromobenzoselenoate]							>6 *							105 to 107
N#CC[Se]C(=O)c1ccccc1C(F)(F)F [N4, Se-(Cyanomethyl) 2-(Trifluoromethyl)benzoselenoate]														65 to 67
N#CC[Se]C(=O)c1cc(C(F)(F)F)cc(C(F)(F)F)c1 [N7, Se-(Cyanomethyl) 3,5-Bis(trifluoromethyl)benzoselenoate]														63 to 65
